These results are taken from ChEMBL document CHEMBL2203254, “Anion inhibition studies of the fastest carbonic anhydrase (CA) known, the extremo-CA from the bacterium Sulfurihydrogenibium azorense” (Bioorg Med Chem Lett, 2012).

One may read the Ki as a measure of affinity in units of concentration, obtained from inhibition or displacement. The low end stands for higher affinity, the high end for lower affinity.

Each structure is given as a SMILES string. Counter-ions that a name gives are not always drawn.

Carbonic anhydrase 1, sequence (P00915 whole entry): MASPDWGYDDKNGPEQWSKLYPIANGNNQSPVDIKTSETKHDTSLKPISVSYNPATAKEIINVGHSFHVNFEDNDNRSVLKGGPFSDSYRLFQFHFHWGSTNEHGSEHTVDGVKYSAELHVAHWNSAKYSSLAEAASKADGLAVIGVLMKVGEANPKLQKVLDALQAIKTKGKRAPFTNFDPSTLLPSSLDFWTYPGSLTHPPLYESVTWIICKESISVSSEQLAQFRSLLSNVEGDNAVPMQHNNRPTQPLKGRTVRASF

One assay deals with Carbonic anhydrase 2 (Homo sapiens, UniProt P00918). The assay can be described thus: Inhibition of human cytosolic carbonic anhydrase 2 preincubated for 15 mins by stopped flow CO2 hydration assay.
Molecule `O=S(=O)(O)ONOS(=O)(=O)O` [SODIUM IMINODISULFATE] registered a Ki of 760 µM.

Target in the next assay: not listed separately
The assay can be described thus: Inhibition of Sulfurihydrogenibium azorense alpha-carbonic anhydrase preincubated for 15 mins by stopped flow CO2 hydration assay.
`CCN(CC)C(=S)S` [DITIOCARB SODIUM] yielded a Ki of 3 µM. Consider `O=NO` [SODIUM NITRITE], for which the Ki amounted to 580 µM. In the case of `O=[N+]([O-])[O-].[Na+]` [SODIUM NITRATE], the affinity corresponds to a Ki of 760 µM. `O=S([O-])O.[Na+]` [SODIUM BISULFITE] registered a Ki of 950 µM. The Ki values of the last two molecules are within 1.5-fold of each other. Still for that read-out and setting: next, `NS(=O)(=O)O` [SODIUM SULFAMATE]: 5 µM; `[F-].[Na+]` [SODIUM FLUORIDE]: 980 µM; `[Cl-].[Na+]` [SODIUM CHLORIDE]: 850 µM. On the same count and under the same terms, next, `N=C=[Se]` [SODIUM ISOSELENOCYANATE]: 490 µM; `O=[Se](=O)(O)O` [SODIUM SELENATE]: 510 µM. Still for that read-out and setting: next, `[I-].[Na+]` [SODIUM IODIDE]: 870 µM; `O=[Te](=O)(O)O` [SODIUM TELLURATE]: 410 µM; `S=C(S)S` [SODIUM CARBONOTRITHIOATE]: 39 µM.

Consider `O=P(O)(O)OP(=O)(O)O` [SODIUM PYROPHOSPHATE], for which the Ki was determined as 660 µM. `O=S(=O)(O)ONOS(=O)(=O)O` [SODIUM IMINODISULFATE] displayed a Ki of 520 µM. This Ki and that of the molecule before are within 1.5-fold of each other. The same measure, in the same setting: next, `O=C([O-])O.[Na+]` [SODIUM BICARBONATE]: 15700 µM; `O=S(=O)(O)OOS(=O)(=O)O` [SODIUM PERSULFATE]: 32900 µM.

With `O=[As](O)(O)c1ccccc1` [PHENYLARSONIC ACID SODIUM SALT], the Ki worked out at 8 µM. On the same count and under the same terms, next, `O=S(=O)([O-])[O-].[Na+].[Na+]` [SODIUM SULFATE ANHYDROUS]: 10000 µM.

The molecule `O=BOB(O)OB(O)OB=O` [SODIUM TETRABORATE] yielded a Ki of 490 µM. On the same count and under the same terms, next, `[Br-].[Na+]` [SODIUM BROMIDE]: 940 µM; `OB(O)c1ccccc1` [PHENYLBORONIC ACID SODIUM SALT]: 7 µM; `[N-]=[N+]=[N-]` [SODIUM AZIDE]: 340 µM. In the case of `S` [SODIUM HYDROSULFIDE], the affinity, expressed as Ki, was 380 µM. `N=C=S` [SODIUM ISOTHIOCYANATE] showed a Ki of 580 µM. In the case of `F[B-](F)(F)F.[Na+]` [SODIUM TETRAFLUOROBORATE], the Ki is > 200000 µM. The same measure, in the same setting: next, `[O-][Cl+3]([O-])([O-])O` [SODIUM PERCHLORATE]: > 200000 µM; `NS(N)(=O)=O` [SULFURIC DIAMIDE SODIUM SALT]: 4 µM.

Regarding `CC(=O)Nc1nnc(S(N)(=O)=O)s1` [ACETAZOLAMIDE], the Ki amounted to 0.0009 µM. This Ki is about 4400-fold lower than that of the molecule before.

`O=C([O-])[O-].[Na+].[Na+]` [SODIUM CARBONATE] showed a Ki of 7600 µM.

A further assay addresses Carbonic anhydrase 1 (Homo sapiens, UniProt P00915). Kind of assay: Inhibition of human cytosolic carbonic anhydrase 1 preincubated for 15 mins by stopped flow CO2 hydration assay.
Regarding `N=C=[Se]` [SODIUM ISOSELENOCYANATE], the affinity corresponds to a Ki of 85 µM. `O=S(=O)(O)ONOS(=O)(=O)O` [SODIUM IMINODISULFATE] yielded a Ki of 310 µM.
